Results: ChEMBL document CHEMBL5614464, “Geldanamycin, a Naturally Occurring Inhibitor of Hsp90 and a Lead Compound for Medicinal Chemistry” (J Med Chem, 2024)

Assays:
[1] = Inhibition of recombinant HSP90 (unknown origin); parameters: species or system Homo sapiens
[2] = tested on: SK-OV-3; test: Antiproliferative activity against human SK-OV-3 cells assessed as reduction in cell viability incubated for 48 hrs by MTT assay; format: functional, cell-based; details: SK-OV-3, 48 h
[3] = tested on: PC-3; test: Antiproliferative activity against human PC-3 cells assessed as reduction in cell viability incubated for 48 hrs by MTT assay; format: functional, cell-based; details: PC-3, 48 h

| Structure (SMILES) | IC50 [1] [nM] | IC50 [2] [nM] | IC50 [3] [nM] |
| --- | --- | --- | --- |
| CO[C@H]1/C=C\C=C(/C)C(=O)NC2=CC(=O)C(c3ccccc3)=C(C[C@@H](C)C[C@H](OC)[C@H](O)[C@@H](C)/C=C(\C)[C@@H]1OC(N)=O)C2=O | 1700 | – | – |
| COC1=C2C[C@@H](C)C[C@H](OC)[C@H](O)[C@@H](C)/C=C(\C)[C@H](OC(N)=O)[C@@H](OC)/C=C\C=C(/C)C(=O)NC(=CC1=O)C2=O [GELDANAMYCIN] | – | 580 | 580 |
